Assay results from patent publication US20060165803A1, “Pharmaceutical compositions of sertaconazole for vaginal use” (priority 2002, published 2006).

Legend:
[1] = test system: C. guillermondii; conditions: C. guillermondii (5); cited from earlier work
[2] = test system: C. glabrata; conditions: C. glabrata (16); cited from earlier work
[3] = test system: C. albicans; conditions: C. albicans (73); cited from earlier work
[4] = test system: C. parapsilosis; conditions: C. parapsilosis (22); cited from earlier work
[5] = test system: C. tropicalis; conditions: C. tropicalis (21); cited from earlier work
[6] = test system: C. krusei; conditions: C. krusei (13); cited from earlier work
[7] = test system: C. albicans; conditions: against C. albicans; cited from earlier work
[8] = test system: reconstituted vaginal epithelial cells; assay: In vitro permeation test through reconstituted vaginal epithelium, Franz cell; assay type: in vitro ADME; conditions: reconstituted human vaginal epithelium, phosphate buffer pH 7.4, 32° C.
Protocol: The in vitro dissolution and transdermal permeation tests of sertaconazole nitrate from the cream formulations of Example 1 were evaluated in comparison with a conventional cream formulation of 2% sertaconazole nitrate.
Both tests were carried out with Franz cell-type diffusion systems, with a diffusional area of 2.54 cm^2. 1 ml of cream was placed in the donor compartment and 11 ml of a suitable receptor medium were placed in the receptor compartment. For the dissolution test, a 0.45-μm Millipore membrane of nylon esters was used, and the receptor medium was made up of a mixture of ethanol-water (1:1). Vaginal epithelium was used as permeation membrane and phosphate buffer solution at pH 7.4 was used as the receptor medium.
The 4-cm^2 membranes used in the permeation test were formed by reconstituted vaginal epithelial cells (5-day culture) from transformed cells of human vaginal epithelium on polycarbonate support. These cells were obtained from cell lines of vulvar epidermoid carcinomas. The test temperature was 32° C. for both cases.

Row | absorption (permeation) through the vaginal mucosa [8] | SMILES | minimum inhibitory concentration (MIC) [1] | minimum inhibitory concentration (MIC) [2] | minimum inhibitory concentration (MIC) [3] | minimum inhibitory concentration (MIC) [4] | minimum inhibitory concentration (MIC) [5] | minimum inhibitory concentration (MIC) [6] | fungicide activity compared with imidazole antifungal drugs [7]
1 | – | c1ccc(-c2ccc(C(c3ccccc3)n3ccnc3)cc2)cc1 (centres unmarked) [Bifonazole, bifonazole] | 3.87 | 4.09 | 3.6 | 3.76 | 9.51 | 2.20 | –
2 | – | Clc1ccc(COC(Cn2ccnc2)c2ccc(Cl)cc2Cl)cc1 (centres unmarked) [Econazole, econazole] | 1.11 | 2.39 | 2.24 | 0.75 | 3.14 | 0.91 | –
3 | less than 0.1 % of the dose | Clc1ccc(C(Cn2ccnc2)OCc2csc3c(Cl)cccc23)c(Cl)c1 (centres unmarked) [Sertaconazole, sertaconazole] | 0.51 | 0.78 | 1.02 | 0.31 | 1.67 | 0.38 | superior to most imidazole antifungal drugs
